pIC50: −log10 of the molar value.
Legend:
PI3Kα = target: T1, PI3Kα (Homo sapiens, UniProt P42336); assay: PI3Kα molecular activity test (ADP-GLO); format: biochemical; conditions: for Selectivity (PI3Kδ IC50/PI3KαIC50): PI3Kδ IC50/PI3Kα IC50; for pIC50: recombinant protein, 100 μM ATP, 2 hours at room temperature
T1 construct: purchased Carna Bioscience
Description: (§1) Instrument: ELISA Reader Envision™ (PerkinElmer, USA)
(§2) Materials: Human recombinant PI3K and PI3Kδ proteins, purchased from Carna Bioscience; ADP-GLO kit, purchased from Promega.
(§3) Take the PI3Kα Molecular Activity Test as an Example to Describe the Text Method of the PI3K Subtypes
(§4) PI3K-α recombinant protein and substrate ATP were diluted with kinase reaction buffer (50 mM Tris-HCl, pH 7.4, 2.1 mM DTT, 0.05% Tween-20, 10 mM MgCl2). […] The specific reaction system was 2% of DMSO, 0.8 ng/μL PI3K-α, and 100 μM ATP, the positive compound control groups and control wells were set, and there were 3 multiple-wells for each concentration of each sample. After incubating for 2 hours at room temperature, ADP-GLO Reagent and Kinase Detection Reagent were added respectively, and then Envision™ was used to detect the […] readings. The activity rate of the samples were calculated by the sample readings, and the calculation formula was: activity rate=(ODcompound−ODcontrol)/(ODDMSO−ODcontro) ×100%.

PI3Kδ = target: T2, PI3Kδ (Homo sapiens, UniProt O00329); assay: PI3Kδ molecular activity test (ADP-GLO); format: biochemical; conditions: recombinant protein
T2 construct: purchased Carna Bioscience
Description: as §1, §2, §3, §4

MCF7 (PIK3CA mut) = assay: Tumor cell proliferation, CCK8 method, MCF7; format: cell-based, human; conditions: Homo sapiens; CCK8, MCF7; read-out: MCF7 (PIK3CA mut) proliferation IC50
Description: (§5) The IC50 value was calculated using Graphpad Prism V5.0 software.

KPL4 (PIK3CA mut) = assay: Tumor cell proliferation, CCK8 method, KPL4; format: cell-based; conditions: CCK8, KPL4; read-out: KPL4 (PIK3CA mut) proliferation IC50
Description: as §5

SW48 (PIK3CA mut) = assay: Tumor cell proliferation, CCK8 method, SW48; format: cell-based; conditions: Homo sapiens; CCK8, SW48; read-out: SW48 (PIK3CA mut) proliferation IC50
Description: as §5

ZR-75-1 (PTEN loss) = assay: Tumor cell proliferation, CCK8 method, ZR-75-1; format: cell-based; conditions: Homo sapiens; CCK8, ZR-75-1
Description: as §5

T1 sequence (P42336 whole entry): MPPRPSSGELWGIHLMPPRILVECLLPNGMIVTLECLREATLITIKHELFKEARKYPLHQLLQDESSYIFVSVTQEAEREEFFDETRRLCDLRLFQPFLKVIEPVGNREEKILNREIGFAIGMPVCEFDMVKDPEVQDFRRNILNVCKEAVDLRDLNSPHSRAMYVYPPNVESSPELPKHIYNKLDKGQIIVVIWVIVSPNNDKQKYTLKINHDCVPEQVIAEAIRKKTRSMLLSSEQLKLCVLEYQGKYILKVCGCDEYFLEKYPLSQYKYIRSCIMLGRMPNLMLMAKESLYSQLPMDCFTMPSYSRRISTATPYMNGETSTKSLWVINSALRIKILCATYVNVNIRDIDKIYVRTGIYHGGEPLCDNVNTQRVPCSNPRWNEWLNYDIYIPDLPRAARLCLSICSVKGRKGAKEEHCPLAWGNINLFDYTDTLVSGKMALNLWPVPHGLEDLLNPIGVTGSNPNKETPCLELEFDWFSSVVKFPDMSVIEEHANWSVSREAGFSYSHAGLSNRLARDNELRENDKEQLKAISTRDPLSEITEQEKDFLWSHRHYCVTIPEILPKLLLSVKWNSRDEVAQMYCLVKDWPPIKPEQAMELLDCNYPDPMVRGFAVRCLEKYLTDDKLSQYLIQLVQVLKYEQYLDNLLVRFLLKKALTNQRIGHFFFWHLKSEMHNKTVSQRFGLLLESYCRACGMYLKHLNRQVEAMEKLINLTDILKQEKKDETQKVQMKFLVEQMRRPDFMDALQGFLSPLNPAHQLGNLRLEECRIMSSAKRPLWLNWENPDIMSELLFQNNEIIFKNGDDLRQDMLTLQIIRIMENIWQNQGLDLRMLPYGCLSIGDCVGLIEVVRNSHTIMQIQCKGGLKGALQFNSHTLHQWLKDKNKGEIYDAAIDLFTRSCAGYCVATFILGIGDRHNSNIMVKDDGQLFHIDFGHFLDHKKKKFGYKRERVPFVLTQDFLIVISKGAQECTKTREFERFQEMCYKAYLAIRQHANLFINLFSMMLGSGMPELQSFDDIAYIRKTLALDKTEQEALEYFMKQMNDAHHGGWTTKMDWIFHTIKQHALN
T1 sequence (P27986 whole entry partner): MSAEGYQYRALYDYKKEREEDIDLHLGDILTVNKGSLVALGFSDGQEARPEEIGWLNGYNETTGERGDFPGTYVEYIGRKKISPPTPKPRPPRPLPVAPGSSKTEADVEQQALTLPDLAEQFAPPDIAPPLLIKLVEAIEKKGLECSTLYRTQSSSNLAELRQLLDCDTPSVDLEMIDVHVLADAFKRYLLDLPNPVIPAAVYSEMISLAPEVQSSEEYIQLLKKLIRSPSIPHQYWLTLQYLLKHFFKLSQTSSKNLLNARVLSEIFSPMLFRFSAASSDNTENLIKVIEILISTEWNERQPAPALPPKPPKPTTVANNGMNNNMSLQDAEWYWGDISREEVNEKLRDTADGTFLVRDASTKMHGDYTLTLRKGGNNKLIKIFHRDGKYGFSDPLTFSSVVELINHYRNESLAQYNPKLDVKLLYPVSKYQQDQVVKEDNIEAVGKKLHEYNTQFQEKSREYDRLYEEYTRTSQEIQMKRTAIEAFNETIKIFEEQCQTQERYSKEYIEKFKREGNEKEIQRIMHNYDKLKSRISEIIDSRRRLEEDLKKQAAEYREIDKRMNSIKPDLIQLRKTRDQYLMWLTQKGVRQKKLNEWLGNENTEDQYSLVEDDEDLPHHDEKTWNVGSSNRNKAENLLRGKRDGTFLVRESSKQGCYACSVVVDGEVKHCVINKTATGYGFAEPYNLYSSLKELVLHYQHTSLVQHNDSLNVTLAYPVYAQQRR
T2 sequence (O00329 whole entry): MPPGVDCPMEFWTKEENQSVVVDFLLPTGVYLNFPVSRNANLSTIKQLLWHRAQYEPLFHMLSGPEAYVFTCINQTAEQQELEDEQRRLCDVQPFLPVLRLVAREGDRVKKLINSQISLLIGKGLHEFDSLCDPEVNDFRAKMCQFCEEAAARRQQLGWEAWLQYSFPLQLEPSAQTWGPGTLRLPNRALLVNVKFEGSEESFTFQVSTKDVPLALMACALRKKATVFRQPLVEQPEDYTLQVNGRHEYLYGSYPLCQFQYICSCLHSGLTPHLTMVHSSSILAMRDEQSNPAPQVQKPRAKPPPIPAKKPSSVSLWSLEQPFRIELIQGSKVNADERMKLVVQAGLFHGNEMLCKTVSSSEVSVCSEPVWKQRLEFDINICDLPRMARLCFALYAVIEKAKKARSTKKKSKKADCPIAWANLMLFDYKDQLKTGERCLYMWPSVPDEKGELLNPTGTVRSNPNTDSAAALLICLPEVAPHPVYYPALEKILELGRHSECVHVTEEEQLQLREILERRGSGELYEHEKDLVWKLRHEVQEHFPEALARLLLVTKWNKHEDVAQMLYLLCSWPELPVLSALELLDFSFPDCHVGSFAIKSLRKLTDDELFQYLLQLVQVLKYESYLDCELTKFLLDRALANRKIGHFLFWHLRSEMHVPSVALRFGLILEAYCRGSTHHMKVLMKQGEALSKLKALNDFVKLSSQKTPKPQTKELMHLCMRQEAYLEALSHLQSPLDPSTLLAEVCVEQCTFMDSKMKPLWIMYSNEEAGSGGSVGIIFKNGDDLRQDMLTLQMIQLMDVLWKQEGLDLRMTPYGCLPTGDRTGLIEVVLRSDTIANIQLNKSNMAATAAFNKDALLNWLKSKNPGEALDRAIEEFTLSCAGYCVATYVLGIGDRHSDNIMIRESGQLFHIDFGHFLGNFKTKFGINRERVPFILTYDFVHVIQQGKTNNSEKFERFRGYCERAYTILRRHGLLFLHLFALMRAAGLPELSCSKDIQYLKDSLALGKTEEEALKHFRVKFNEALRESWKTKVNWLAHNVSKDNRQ
T2 sequence (P27986 whole entry partner): as the sequence (P27986 whole entry partner) above

Structure (SMILES) | Selectivity (PI3Kδ IC50/PI3KαIC50) (PI3Kα) | pIC50 (PI3Kα) | pIC50 (PI3Kδ) | pIC50 (MCF7 (PIK3CA mut)) | pIC50 (KPL4 (PIK3CA mut)) | pIC50 (SW48 (PIK3CA mut)) | pIC50 (ZR-75-1 (PTEN loss))
COc1c(O)ccc2c(=O)n(C)c(NC(=O)c3cnc(N)nc3)nc12 [7a, 2-Amino-N-(8-methoxy-3-methyl-7-hydroxy-4-oxo-3,4-dihydroquinazolinone-2-yl) pyrimidine-5-carboxamide] | III (“III” represents >10 times) | > 7.70 | 6.70 to 7.70 | – | – | – | –
CCn1c(NC(=O)c2cnc(N)nc2)nc2c(OC)c(O)ccc2c1=O [7b, 2-amino-N-(3-ethyl-7-hydroxy-8-methoxy-4-oxo-3 ,4-dihydroquinazolin-2-yl) pyrimidine-5-carboxamide] | II (“II” represents 5-10 times) | > 7.70 | 6.70 to 7.70 | > 7.70 | 6.70 to 7.70 | > 7.70 | 6.70 to 7.70
COc1c(O)ccc2c(=O)n(CC(F)(F)F)c(NC(=O)c3cnc(N)nc3)nc12 [7e, 2-amino-N-(3-trifluoroethyl-7-hydroxy-8-methoxy-4-oxo-3,4-dihydroquinazolin-2-yl) pyrimidine-5-carboxamide] | I (“I” represents <5 times) | 6.70 to 7.70 | 6.70 to 7.70 | – | – | – | –
COc1c(O)ccc2c(=O)n(CC(F)F)c(NC(=O)c3cnc(N)nc3)nc12 [7f, 2-amino-N-(3-difluoroethyl-7-hydroxy-8-methoxy-4-oxo-3,4-dihydroquinazolin-2-yl) pyrimidine-5-carboxamide] | I (“I” represents <5 times) | 6.70 to 7.70 | 6.70 to 7.70 | – | – | – | –
COc1c(OCCC(N)=O)ccc2c(=O)n(C)c(NC(=O)c3cnc(N)nc3)nc12 [8a-3] | III (“III” represents >10 times) | > 7.70 | 6.70 to 7.70 | > 7.70 | > 7.70 | > 7.70 | > 7.70
CNC(=O)COc1ccc2c(=O)n(C)c(NC(=O)c3cnc(N)nc3)nc2c1OC [8a-4] | II (“II” represents 5-10 times) | > 7.70 | 6.70 to 7.70 | – | – | – | –
COc1c(OCC(=O)N(C)C)ccc2c(=O)n(C)c(NC(=O)c3cnc(N)nc3)nc12 [8a-5] | II (“II” represents 5-10 times) | > 7.70 | 6.70 to 7.70 | – | – | – | –
COc1c(OCC(=O)N2CCOCC2)ccc2c(=O)n(C)c(NC(=O)c3cnc(N)nc3)nc12 [8a-8] | II (“II” represents 5-10 times) | > 7.70 | 6.70 to 7.70 | – | – | – | –
COc1c(OCCCC(N)=O)ccc2c(=O)n(C)c(NC(=O)c3cnc(N)nc3)nc12 [8a-9] | III (“III” represents >10 times) | > 7.70 | 6.70 to 7.70 | – | – | – | –
COc1c(OCCCN2CCOCC2)ccc2c(=O)n(C)c(NC(=O)c3cncnc3)nc12 [8a-14] | II (“II” represents 5-10 times) | > 7.70 | 6.70 to 7.70 | – | – | – | –
COc1c(OCCCN2CCOCC2)ccc2c(=O)n(C)c(NC(=O)c3ccnnc3)nc12 [8a-15] | II (“II” represents 5-10 times) | > 7.70 | 6.70 to 7.70 | – | – | – | –
COc1c(OCCCN2CCOCC2)ccc2c(=O)n(C)c(NC(=O)c3ccc(N)nc3)nc12 [8a-16] | II (“II” represents 5-10 times) | > 7.70 | 6.70 to 7.70 | – | – | – | –
CCOC(=O)COc1ccc2c(=O)n(C)c(NC(=O)c3cnc(N)nc3)nc2c1OC [8a-29] | III (“III” represents >10 times) | > 7.70 | 6.00 to 6.70 | > 7.70 | 6.70 to 7.70 | 6.70 to 7.70 | 6.00 to 6.70
COc1c(OCCNS(C)(=O)=O)ccc2c(=O)n(C)c(NC(=O)c3cnc(N)nc3)nc12 [8a-30, 2-amino-N-(8-methoxy-3-methyl-7-(2-(methylsulfonamido)ethoxy)-4-oxo-3,4-dihydroquinazolin-2-yl) pyrimidine-5-carboxamide] | II (“II” represents 5-10 times) | > 7.70 | 6.70 to 7.70 | > 7.70 | 6.70 to 7.70 | 6.70 to 7.70 | 6.00 to 6.70
COc1c(OC[C@@H](O)CN2CCOCC2)ccc2c(=O)n(C)c(NC(=O)c3ccc(N)nc3)nc12 [8a-38, (S)-6-amino-N-(7-(2-hydroxy-3-morpholinopropoxy)-8-methoxy-3-methyl-4-oxo-3,4-dihydroouinazolin-2-yl) nicotinamide] | II (“II” represents 5-10 times) | > 7.70 | 6.70 to 7.70 | > 7.70 | 6.70 to 7.70 | 6.70 to 7.70 | 6.00 to 6.70
COc1c(OC[C@H](O)CN2CCOCC2)ccc2c(=O)n(C)c(NC(=O)c3ccc(N)nc3)nc12 [8a-39, (R)-6-amino-N-(7-(2-hydroxy-3-morpholinopropoxy)-8-methoxy-3-methyl-4-oxo-3,4-dihydroquinazolin-2-yl) nicotinamide] | II (“II” represents 5-10 times) | > 7.70 | 6.70 to 7.70 | > 7.70 | 6.70 to 7.70 | 6.70 to 7.70 | 6.00 to 6.70
COc1c(OCCCN2CCOCC2)ccc2c(=O)n(C)c(NC(=O)c3cncnc3)cc12 [8a′-8] | III (“III” represents >10 times) | > 7.70 | 6.70 to 7.70 | – | – | – | –

Structure (SMILES) | Selectivity (PI3Kδ IC50/PI3KαIC50) (PI3Kα) | pIC50 (PI3Kα) | pIC50 (PI3Kδ) | pIC50 (MCF7 (PIK3CA mut)) | pIC50 (KPL4 (PIK3CA mut)) | pIC50 (SW48 (PIK3CA mut)) | pIC50 (ZR-75-1 (PTEN loss))
COc1c(OCCCN2CCOCC2)ccc2c(=O)n(C)c(NC(=O)c3ccnnc3)cc12 [8a′-9] | III (“III” represents >10 times) | > 7.70 | 6.70 to 7.70 | – | – | – | –
CCn1c(NC(=O)c2cnc(N)nc2)nc2c(OC)c(OCCC(N)=O)ccc2c1=O [8b-3] | III (“III” represents >10 times) | > 7.70 | 6.70 to 7.70 | – | – | – | –
CCn1c(NC(=O)c2cncnc2)nc2c(OC)c(OCCCN3CCOCC3)ccc2c1=O [8b-14] | II (“II” represents 5-10 times) | 6.70 to 7.70 | > 7.70 | – | – | – | –
CCn1c(NC(=O)c2cnc(N)nc2)cc2c(OC)c(OCCC(N)=O)ccc2c1=O [8b′-3] | III (“III” represents >10 times) | > 7.70 | 6.70 to 7.70 | – | – | – | –
COc1c(OCC(N)=O)ccc2c(=O)n(C(C)C)c(NC(=O)c3cnc(N)nc3)nc12 [8c-2] | I (“I” represents <5 times) | 6.70 to 7.70 | 6.70 to 7.70 | – | – | – | –
COc1c(OCCC(N)=O)ccc2c(=O)n(C(C)C)c(NC(=O)c3cnc(N)nc3)nc12 [8c-3] | I (“I” represents <5 times) | 6.70 to 7.70 | 6.70 to 7.70 | – | – | – | –
COc1c(OCC(N)=O)ccc2c(=O)n(C3CC3)c(NC(=O)c3cnc(N)nc3)nc12 [8d-2] | I (“I” represents <5 times) | 6.70 to 7.70 | 6.70 to 7.70 | – | – | – | –
COc1c(OCCCN2CCOCC2)ccc2c(=O)n(CC(F)F)c(NC(=O)c3cnc(N)nc3)nc12 [8f-1] | – | – | – | > 7.70 | 6.70 to 7.70 | 6.70 to 7.70 | 6.00 to 6.70
CCn1c(NC(=O)c2cnc(N)nc2)nc2c(OC(F)F)c(OCCCN3CCOCC3)ccc2c1=O [8g-1] | – | – | – | > 7.70 | 6.70 to 7.70 | 6.70 to 7.70 | 6.00 to 6.70
Cn1c(NC(=O)c2cnc(N)nc2)cc2c3c(ccc2c1=O)OCCO3 [14a′-2] | II (“II” represents 5-10 times) | > 7.70 | 6.70 to 7.70 | – | – | – | –
Cn1c(NC(=O)c2cnc(N)nc2)cc2c3c(ccc2c1=O)OCCCCO3 [14a′-4] | II (“II” represents 5-10 times) | > 7.70 | 6.70 to 7.70 | – | – | – | –
Cn1c(NC(=O)c2cnc(N)nc2)cc2c3c(ccc2c1=O)OCCOCCO3 [14a′-5] | II (“II” represents 5-10 times) | > 7.70 | 6.70 to 7.70 | – | – | – | –
Cn1c(NC(=O)c2cnc(N)nc2)cc2c3c(ccc2c1=O)OCCOCCOCCO3 [14a′-6] | II (“II” represents 5-10 times) | > 7.70 | 6.70 to 7.70 | – | – | – | –
Cn1c(NC(=O)c2cnc(N)nc2)cc2c3c(ccc2c1=O)OCCOCCOCCOCCO3 [14a′-7] | II (“II” represents 5-10 times) | > 7.70 | 6.70 to 7.70 | – | – | – | –
CCn1c(NC(=O)c2cnc(N)nc2)cc2c3c(ccc2c1=O)OCCO3 [14b′-2] | I (“I” represents <5 times) | > 7.70 | > 7.70 | – | – | – | –
CCn1c(NC(=O)c2cnc(N)nc2)cc2c3c(ccc2c1=O)OCCCCO3 [14b′-4] | I (“I” represents <5 times) | 6.70 to 7.70 | 6.70 to 7.70 | – | – | – | –
Cc1nc(NC(=O)N2CCC[C@H]2C(N)=O)sc1-c1ccnc(C(C)(C)C(F)(F)F)c1 [Alpelisib, reference compound] | – | – | – | > 7.70 | 6.70 to 7.70 | 6.70 to 7.70 | 6.70 to 7.70

— patent US12404269B2, “Aminoquinazolinone and aminoisoquinolinone derivatives and application thereof” (ZHEJIANG UNIVERSITY, priority 2018, dated 2025)
